SMILES strings stand for the structures.

The values below come from US20140155410A1 (GlaxoSmithKline LLC, priority 2008, published 2014).

T2 sequence (Q05397 whole entry): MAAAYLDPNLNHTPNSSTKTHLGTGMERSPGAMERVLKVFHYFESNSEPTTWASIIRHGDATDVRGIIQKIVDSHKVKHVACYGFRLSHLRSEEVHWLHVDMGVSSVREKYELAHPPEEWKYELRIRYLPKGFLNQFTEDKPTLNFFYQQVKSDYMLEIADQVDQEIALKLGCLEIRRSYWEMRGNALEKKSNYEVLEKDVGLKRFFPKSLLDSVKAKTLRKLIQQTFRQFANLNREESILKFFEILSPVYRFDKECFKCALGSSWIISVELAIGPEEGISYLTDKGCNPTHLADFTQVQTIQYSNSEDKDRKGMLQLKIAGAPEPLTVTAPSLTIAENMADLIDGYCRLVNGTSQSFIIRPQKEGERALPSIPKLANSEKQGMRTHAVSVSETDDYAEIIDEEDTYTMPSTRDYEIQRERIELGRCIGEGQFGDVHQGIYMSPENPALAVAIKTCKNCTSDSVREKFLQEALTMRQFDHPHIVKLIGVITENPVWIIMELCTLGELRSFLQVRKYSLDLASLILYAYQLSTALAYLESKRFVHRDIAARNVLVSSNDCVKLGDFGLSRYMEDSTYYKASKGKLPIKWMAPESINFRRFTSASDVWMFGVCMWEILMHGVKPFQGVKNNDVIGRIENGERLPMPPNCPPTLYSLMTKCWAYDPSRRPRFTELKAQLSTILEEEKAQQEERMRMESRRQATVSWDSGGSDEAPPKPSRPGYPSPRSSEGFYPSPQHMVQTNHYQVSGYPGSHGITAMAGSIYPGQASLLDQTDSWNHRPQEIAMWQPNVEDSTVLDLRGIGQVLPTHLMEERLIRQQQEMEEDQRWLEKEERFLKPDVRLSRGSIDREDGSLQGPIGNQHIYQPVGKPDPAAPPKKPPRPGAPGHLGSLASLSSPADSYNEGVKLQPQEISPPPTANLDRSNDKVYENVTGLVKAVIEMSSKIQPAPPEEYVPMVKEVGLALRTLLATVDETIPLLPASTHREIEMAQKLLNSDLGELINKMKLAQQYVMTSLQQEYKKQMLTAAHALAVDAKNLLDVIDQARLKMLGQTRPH

One test deals with T1, GST-tagged FAK (Homo sapiens, UniProt Q05397).
T1 construct: purchased Invitrogen PV3832
T1 sequence (Q05397 whole entry): as above
The test can be described thus: Biochemical assay for FAK activity, Assay 1: phosphorylation of peptide substrate with radio-labeled ATP. Conditions: 5 μM ATP, 30 min pre-incubation, read-out: Assay 1 FAK TRF PXC50 (converted). The procedure:
GST-tagged (glutathione S-transferase-tagged) FAK was purchased from Invitrogen (PV3832) (www.invitrogen.com). […] To measure inhibitors of FAK, compounds were first prepared as a 10× stock in 10% DMSO. […] A 6-nM GST-FAK solution was prepared in 1.1× reaction buffer containing 44 mM HEPES, pH=7.2, 11 mM MgCl2, 2.2 mM MnCl2, 1.1 mM DTT and 0.011% Tween-20. Then, 20 μL of the 6 nM GST-FAK solution were pre-incubated with the compounds for 30 min at room temperature. […] The reaction was allowed to proceed for 90 min before being quenched with 40 μL of 1% H3PO4. A portion of the reaction mixture (60 μL) was transferred to a phospho-cellulose filter plate (Millipore; www.millipore.com, MAPHNOB50) and incubated for 20 minutes. The plate was filtrated, washed three times using 150 μL of 0.5% H3PO4 and dried at 50° C. for 30 min. After the addition of 60 μL Microscint-20 to the plate, radioactivity was measured using a TopCount (PerkinElmer; www.PerkinElmer.com).
Regarding `CNC(=O)c1ccccc1Nc1cc(Nc2cc(C)nn2-c2ccccc2)ncc1C(F)(F)F` [Example 33, N-Methyl-2-{[2-[(3-methyl-1-phenyl-1H-pyrazol-5-yl)amino]-5-(trifluoromethyl)-4-pyridinyl]amino}benzamide], the IC50 is 0.398 nM.

With `CNC(=O)c1ccccc1Nc1cc(Nc2cn(C)nc2C)ncc1Cl` [Example 26, 2-({5-Chloro-2-[(1,3-dimethyl-1H-pyrazol-4-yl)amino]-4-pyridinyl}amino)-N-methylbenzamide], the IC50 is 0.398 nM. Still for that read-out and setting: to `CNC(=O)c1cccc(F)c1Nc1cc(Nc2cc(C)nn2C)ncc1Cl` [Example 8, 2-({5-Chloro-2-[(1,3-dimethyl-1H-pyrazol-5-yl)amino]-4-pyridinyl}amino)-3-fluoro-N-methylbenzamide] belongs 0.631 nM.

With `CNC(=O)c1ccccc1Nc1cc(Nc2cc(-c3ccccc3)nn2C)ncc1Cl` [Example 1, 2-[5-Chloro-2-(2-methyl-53-ylamino)-pyridin-4-ylamino]-N-methyl-benzamide], the IC50 is 2 nM. Same read-out and setting: to `CCn1nc(C(=O)O)cc1Nc1cc(Nc2ccccc2C(=O)NC)c(Cl)cn1` [Example 18, 5-{[5-Chloro-4-({2-[(methylamino)carbonyl]phenyl}amino)-2-pyridinyl]amino}-1-ethyl-1H-pyrazole-3-carboxylic acid] belongs 10 nM; to `CNC(=O)c1ccccc1Nc1cc(Nc2cc(C)nn2CCO)ncc1C(F)(F)F` [Example 34, 2-{[2-{[1-(2-hydroxyethyl)-3-methyl-1H-pyrazol-5-yl]amino}-5-(trifluoromethyl)-4-pyridinyl]amino}-N-methylbenzamide], 0.501 nM; to `CNC(=O)c1ccccc1Nc1cc(Nc2cc(C)nn2CCN(C)C)ncc1C(F)(F)F` [Example 31, 2-{[2-({1-[2-(Dimethylamino)ethyl]-3-methyl-1H-pyrazol-5-yl}amino)-5-(trifluoromethyl)-4-pyridinyl]amino}-N-methylbenzamide], 3.98 nM.

The next test has as its target T2, Full length Human FAK (Flag-His-TEV-FAK1) (Homo sapiens, UniProt Q05397).
T2 construct: Full length Human FAK was expressed using baculovirus in Sf9 cells; made in house; host or cells: baculovirus in Sf9 cells
The test can be described thus: Biochemical assay for FAK activity, Assay 2: LANCE Ultra ULight peptide phosphorylation, 665 nm/615 nm ratio. The conditions noted are these: Flag-His-TEV-FAK1, 10 μM ATP, 30 min pre-incubation; read-out: Assay 2 FAK H 31284A TRF PXC50 (converted). As for the experimental part: Flag-His-TEV-FAK1 was prepared in-house. Full length Human FAK was expressed using baculovirus in Sf9 cells with N-terminal FLAG-6×His tags followed by a TEV cleavage site (FLAG-6×His-TEV-huFAK). […] To measure inhibitors of FAK, compounds were first prepared as a 100× stock in 100% DMSO. […] After incubating for 120 minutes at room temperature, the reaction is quenched by adding 5 uL of 20 mM EDTA and 5nMEu-Anti-pTyr antibody in 1× LANCE detection buffer.
With `CNC(=O)c1ccccc1Nc1cc(Nc2cn(C)nc2C)ncc1Cl` [Example 26, 2-({5-Chloro-2-[(1,3-dimethyl-1H-pyrazol-4-yl)amino]-4-pyridinyl}amino)-N-methylbenzamide], the IC50 is 3.98 nM. `CNC(=O)c1cccc(F)c1Nc1cc(Nc2cc(C)nn2C)ncc1Cl` [Example 8, 2-({5-Chloro-2-[(1,3-dimethyl-1H-pyrazol-5-yl)amino]-4-pyridinyl}amino)-3-fluoro-N-methylbenzamide]: the IC50 is 5.01 nM. Turning to `CNC(=O)c1ccccc1Nc1cc(Nc2cc(-c3ccccc3)nn2C)ncc1Cl` [Example 1, 2-[5-Chloro-2-(2-methyl-53-ylamino)-pyridin-4-ylamino]-N-methyl-benzamide], the IC50 is 15.8 nM. Still for that read-out and setting: to `CNC(=O)c1ccc(F)cc1Nc1cc(Nc2cc(C)nn2C(C)C)ncc1Cl` [Example 86, 2-[(5-Chloro-2-{[3-methyl-1-(1-methylethyl)-1H-pyrazol-5-yl]amino}-4-pyridinyl)amino]-4-fluoro-N-methylbenzamide] belongs 1.58 nM; to `CONC(=O)c1ccc(F)cc1Nc1cc(Nc2cc(C)nn2C(C)C)ncc1Cl` [Example 73, 2-[(5-Chloro-2-{[3-methyl-1-(1-methylethyl)-1H-pyrazol-5-yl]amino}-4-pyridinyl)amino]-4-fluoro-N-(methyloxy)benzamide], 1.26 nM; to `CONC(=O)c1cccc(F)c1Nc1cc(Nc2cc(C)nn2C(C)C)ncc1Cl` [Example 72, 2-[(5-Chloro-2-{[3-methyl-1-(1-methylethyl)-1H-pyrazol-5-yl]amino}-4-pyridinyl)amino]-3-fluoro-N-(methyloxy)benzamide], 2.51 nM. Same read-out and setting: to `CONC(=O)c1ccccc1Nc1cc(Nc2cc(C)nn2C)ncc1C1CC1` [Example 55, 2-[5-Cyclopropyl-2-(2,5-dimethyl-2H-pyrazol-3-ylamino)-pyridin-4-ylamino]-N-methoxy-benzamide] belongs 10 nM. The same measure, in the same setting: to `CNC(=O)c1cccc(F)c1Nc1cc(Nc2cc(C)nn2C)ncc1C(F)(F)F` [Example 78, 2-{[2-[(1,3-Dimethyl-1H-pyrazol-5-yl)amino]-5-(trifluoromethyl)-4-pyridinyl]amino}-3-fluoro-N-methylbenzamide] belongs 1.58 nM. In the case of `CONC(=O)c1cccc(F)c1Nc1cc(Nc2cc(C)nn2C)ncc1Cl` [Example 95b, 2-({5-Chloro-2-[(1,3-dimethyl-1H-pyrazol-5-yl)amino]-4-pyridinyl}amino)-3-fluoro-N-(methyloxy)benzamide], the IC50 was 2 nM. Still for that read-out and setting: to `CCONC(=O)c1ccccc1Nc1cc(Nc2cc(C)nn2CC)ncc1Cl` [Example 64, 2-({5-Chloro-2-[(1-ethyl-3-methyl-1H-pyrazol-5-yl)amino]-4-pyridinyl}amino)-N-(ethyloxy)benzamide] belongs 79.4 nM; to `Cc1cc(Nc2cc(Nc3ccc(F)cc3C(=O)N3CCCN3C)c(Cl)cn2)n(C(C)C)n1` [Example 96b, 5-Chloro-N^4-{4-fluoro-2-[(2-methyl-1-pyrazolidinyl)carbonyl]phenyl}-N^2-[3-methyl-1-(1-methylethyl)-1H-pyrazol-5-yl]-2,4-pyridinediamine], 2000 nM. Still for that read-out and setting: next, `CNC(=O)c1cccc(F)c1Nc1cc(Nc2cc(CN(C)C)nn2C)ncc1Cl` [Example 91, 2-{[5-Chloro-2-({3-[(dimethylamino)methyl]-1-methyl-1H-pyrazol-5-yl}amino)-4-pyridinyl]amino}-3-fluoro-N-methylbenzamide]: 251 nM; `CONC(=O)c1cccc(F)c1Nc1cc(Nc2cc(CO)nn2C)ncc1Cl` [Example 95d, 2-[(5-Chloro-2-{[3-(hydroxymethyl)-1-methyl-1H-pyrazol-5-yl]amino}-4-pyridinyl)amino]-3-fluoro-N-(methyloxy)benzamide]: 20 nM; `CONC(=O)c1ccccc1Nc1cc(Nc2cnn(C)c2C)ncc1Cl` [Example 47, 2-({5-Chloro-2-[(1,5-dimethyl-1H-pyrazol-4-yl)amino]-4-pyridinyl}amino)-N-(methyloxy)benzamide]: 2.51 nM. With `CCn1nc(C)cc1Nc1cc(Nc2ccccc2C(=O)NC)c(C2CC2)cn1` [Example 54, 2-[5-Cyclopropyl-2-(2-ethyl-5-methyl-2H-pyrazol-3-ylamino)-pyridin-4-ylamino]-N-methylbenzamide], the IC50 is 31.6 nM. Still for that read-out and setting: to `CCOCc1cc(Nc2cc(Nc3ccccc3C(=O)NC)c(Cl)cn2)n(C(C)C)n1` [Example 61, 2-[(5-Chloro-2-{[3-[(ethyloxy)methyl]-1-(1-methylethyl)-1H-pyrazol-5-yl]amino}-4-pyridinyl)amino]-N-methylbenzamide] belongs 25.1 nM; to `CONC(=O)c1ccc(Cl)cc1Nc1cc(Nc2cc(C)nn2C(C)C)ncc1Cl` [Example 69, 4-Chloro-2-[(5-chloro-2-{[3-methyl-1-(1-methylethyl)-1H-pyrazol-5-yl]amino}-4-pyridinyl)amino]-N-(methyloxy)benzamide], 2.51 nM. On the same count and under the same terms, to `[2H]C([2H])(O)c1cc(Nc2cc(Nc3c(F)cccc3C(=O)NC)c(Cl)cn2)n(C)n1` [Example 93, 2-[(5-Chloro-2-{[3-(hydroxymethyl)-1-methyl-1H-pyrazol-5-yl]amino}-4-pyridinyl)amino]-3-fluoro-N-methylbenzamide-d2] belongs 10 nM; to `CNC(=O)c1cccc(F)c1Nc1cc(Nc2cc(CCO)nn2C)ncc1C(F)(F)F` [Example 82, 3-Fluoro-2-{[2-{[3-(2-hydroxyethyl)-1-methyl-1H-pyrazol-5-yl]amino}-5-(trifluoromethyl)-4-pyridinyl]amino}-N-methylbenzamide], 0.794 nM. Same read-out and setting: to `CNC(=O)c1cccc(F)c1Nc1cc(Nc2cc(CO)nn2C)ncc1C(F)(F)F` [Example 80, 3-Fluoro-2-{[2-{[3-(hydroxymethyl)-1-methyl-1H-pyrazol-5-yl]amino}-5-(trifluoromethyl)-4-pyridinyl]amino}-N-methylbenzamide] belongs 12.6 nM.
